Reference: patent publication US11420966B2 (ACLARIS THERAPEUTICS, INC., priority 2019, dated 2022)

Experiments:
JAK1 = JAK1 (Homo sapiens (Human), UniProt P23458); test: JAK1 enzyme activity assay (Thermo Fisher SelectScreen, Z-lyte); format: biochemical; details: read-out: JAK1 Inhibition IC50
Summary of the method: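 Z-lyte assay with 21.2-91.5 ng JAK and […] Tyr 06 in 50 mM HEPES pH 7.0, 10 mM MgCl2, 1 mM EGTA, 0.01% BRIJ-35; 1 h kinase reaction, then development reagent. 11-point dose-response from […] to 0.34 nM, 2% DMSO vehicle; IC50 from 4-parameter logistic fit of emission ratio.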

GI Exposure PK in Mice = format: in vivo; details: mouse, male BalbC mice, oral dose of 5 mg/kg
Method: The test compound was wetted with ˜0.025% of Tween-20 and triturated in a mortar and pestle, then slowly 0.5% of methyl cellulose was added to make up the final volume to 7.25 mL. The BalbC test animals were subjected to anesthesia induced with a mixture of 5% isoflurane and 0.8-1.5 L/min 02 gas flow. The formulated test compound was then dosed via oral gavage. At various time points (0.5, 1, 2, 4, 6 and 8 h) blood samples (˜100 μL) were collected from portal vein (pre-hepatic) followed by cardiac puncture (circulating) into tubes containing 2% w/v aqueous K2 EDTA solution as per time points. Post blood sampling, the gastro intestine (GI) tissues were collected from the mice at the same time points. The GI tissue was dissected into different parts as duodenum, jejunum, ileum and colon. The separated tissues were washed by flushing with PBS via oral gavage needle to remove GI content. Post collection all the tissues were blotted, weighed and homogenized with PBS buffer (pH 7.4). The blood samples were immediately placed on ice and centrifuged within 30 min at 4° C. for 5 min at 8,000 rpm to obtain plasma. Plasma was transferred by pipettes to pre-labelled centrifuge tubes and immediately transferred to −80° C. until bioanalysis. Tissue samples were placed in pre-labelled container and all samples were kept in −80° C. until homogenized. The homogenate was stored immediately in −80° C. until bioanalysis was conducted. Study samples were thawed to room temperature and 50 μL of sample was aliquoted into pre-labeled vials. To these was added 400 μL of 100% acetonitrile containing an IS (100 ng/mL; warfarin, tolbutamide and loperamide). The vials were mixed well, vortexed for 5 min, followed by centrifugation for 5 min at 14000 rpm at 4° C. The supernatant was separated and same was injected on LC-MS/MS. Plasma and GI tissue levels of test compound were determined by LC-MS analysis using a standard curve in the text matrix. Individual concentration-time data were analyzed using Phoenix WinNonlin (Version 8.1) by the non-compartmental analysis (NCA) method.

[1] = portal vein plasma (pre-hepatic), Portal plasma

Sequence of JAK1 (P23458 whole entry): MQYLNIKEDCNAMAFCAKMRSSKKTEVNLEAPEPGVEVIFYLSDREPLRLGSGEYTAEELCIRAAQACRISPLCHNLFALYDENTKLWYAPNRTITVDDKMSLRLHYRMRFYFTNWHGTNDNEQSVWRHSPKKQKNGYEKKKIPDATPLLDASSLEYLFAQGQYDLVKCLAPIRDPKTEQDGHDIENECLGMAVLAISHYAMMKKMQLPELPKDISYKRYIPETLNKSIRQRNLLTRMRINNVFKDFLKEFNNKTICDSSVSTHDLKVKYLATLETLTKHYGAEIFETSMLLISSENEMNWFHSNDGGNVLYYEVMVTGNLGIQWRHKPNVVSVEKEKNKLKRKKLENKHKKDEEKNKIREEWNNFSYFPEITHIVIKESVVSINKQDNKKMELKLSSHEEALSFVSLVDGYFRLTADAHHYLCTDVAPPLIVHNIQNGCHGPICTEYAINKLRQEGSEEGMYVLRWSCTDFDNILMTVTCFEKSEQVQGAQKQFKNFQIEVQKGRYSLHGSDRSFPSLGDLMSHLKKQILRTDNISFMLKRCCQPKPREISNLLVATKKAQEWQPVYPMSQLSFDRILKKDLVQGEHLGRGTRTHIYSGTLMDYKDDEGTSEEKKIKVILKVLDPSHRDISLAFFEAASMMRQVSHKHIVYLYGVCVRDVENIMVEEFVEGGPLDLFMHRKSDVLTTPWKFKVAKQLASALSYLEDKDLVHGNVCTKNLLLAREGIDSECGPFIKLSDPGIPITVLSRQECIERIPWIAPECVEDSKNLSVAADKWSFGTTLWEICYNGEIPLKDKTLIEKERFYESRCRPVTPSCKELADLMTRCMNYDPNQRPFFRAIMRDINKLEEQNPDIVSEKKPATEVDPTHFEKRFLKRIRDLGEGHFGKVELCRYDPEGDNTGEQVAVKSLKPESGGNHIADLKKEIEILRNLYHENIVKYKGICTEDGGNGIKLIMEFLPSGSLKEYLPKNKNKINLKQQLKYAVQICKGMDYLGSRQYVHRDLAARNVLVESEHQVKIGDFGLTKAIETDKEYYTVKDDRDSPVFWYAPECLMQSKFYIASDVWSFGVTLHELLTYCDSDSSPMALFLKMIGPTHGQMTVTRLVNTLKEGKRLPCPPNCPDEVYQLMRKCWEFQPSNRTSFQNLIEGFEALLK

IC50 (JAK1): ≤ 10 nM
Tmax (GI Exposure PK in Mice; circulating plasma (cardiac puncture), Circulating plasma): 4 h
Cmax (GI Exposure PK in Mice; circulating plasma (cardiac puncture), Circulating plasma, two of three subjects, third BLQ): 9.2 ng/mL
AUC (GI Exposure PK in Mice; [1]): 17.2 ng·h/mL
Cmax (GI Exposure PK in Mice; [1]): 11.3 ng/mL
Tmax (GI Exposure PK in Mice; [1]): 0.5 h
AUC (GI Exposure PK in Mice; Colon): 6820 ng·h/mL
Cmax (GI Exposure PK in Mice; Colon): 1290 ng/g
Tmax (GI Exposure PK in Mice; Colon): 4 h
AUC (GI Exposure PK in Mice; Duodenum): 4660 ng·h/mL
Cmax (GI Exposure PK in Mice; Duodenum): 2880 ng/g
Tmax (GI Exposure PK in Mice; Duodenum): 0.5 h
AUC (GI Exposure PK in Mice; Ileum): 82500 ng·h/mL
Cmax (GI Exposure PK in Mice; Ileum): 43800 ng/g
Tmax (GI Exposure PK in Mice; Ileum): 2 h
AUC (GI Exposure PK in Mice; Jejunum): 57400 ng·h/mL
Cmax (GI Exposure PK in Mice; Jejunum): 37000 ng/g
Tmax (GI Exposure PK in Mice; Jejunum): 0.5 h
Compound: CNC(=O)c1coc(-c2cnc3[nH]ccc3c2N[C@@H]2C[C@H](C)CN(C(=O)CC#N)C2)n1 [Example 31, 2-(4-(((3R,5S)-1-(2-cyanoacetyl)-5-methylpiperidin-3-yl)amino)-1H-pyrrolo[2,3-b]pyridin-5-yl)-N-methyloxazole-4-carboxamide]
